Assay [1] addresses Muscarinic acetylcholine receptor. Kind of assay: Binding affinity to muscarinic acetylcholine receptor was determined in presence of [3H]QNB radioligand (in vitro). Format: protein assay.
Assay [2] concerns Mus musculus. Kind of assay: ED50 value as cholinergic agonist by measuring tremors in mice (in vivo). Format: functional.
Assay [3] has as its system Mus musculus. Kind of assay: ED50 value determined as oxotremorine antagonism by measuring lacrimation in mice (in vivo). It counts as functional.
Assay [4] has as its system Mus musculus. Briefly: ED50 value as cholinergic agonist by measuring salivation in mice (in vivo). Format: functional.
Assay [5] relates to Mus musculus. Kind of assay: ED50 value as cholinergic agonism by measuring lacrimation in mice (in vivo). It counts as functional.
Assay [6] has as its target Muscarinic acetylcholine receptor (Rattus norvegicus) (UniProt P08482+P08483+P08485+P08911+P10980). Briefly: Ratio of Ki value for QNB to that of Ki value for Oxo-M. It counts as protein assay.
The target of assay [7] is Muscarinic acetylcholine receptor. Briefly: Binding affinity to muscarinic acetylcholine receptor was determined in presence of [3H]OXO-M radioligand (in vitro). Format: protein assay.
For assay [8], the system named is Mus musculus. Kind of assay: ED50 value determined as oxotremorine antagonism by measuring tremors in mice (in vivo). It counts as functional.
In assay [9] the test system is Mus musculus. Kind of assay: ED50 value determined as oxotremorine antagonism by measuring salivation in mice (in vivo). It counts as functional.

The text below walks through data of ChEMBL document CHEMBL1125599, “Cholinergic activity of acetylenic imidazoles and related compounds” (J Med Chem, 1991).

Structures are written as SMILES.

Usually Ki stands for the equilibrium dissociation constant of an inhibitor or competing ligand from its target. Broadly, the ED50 is the dose that gives a 50% effect, or the effect in half of the subjects. As for `CC1CCC(=O)N1CC#CCN1CCCC1` (centres undefined), the Ki in assay [1] came out at 14 nM; in assay [7], 1.5 nM. Moreover, the ED50 is over 30 mg/kg in the assay with Mus musculus [2]; 0.55 mg/kg in the assay with Mus musculus [3]; over 30 mg/kg with Mus musculus [4]; over 30 mg/kg in the assay with Mus musculus [5]; 1.7 mg/kg with Mus musculus [8]; 2 mg/kg in the assay with Mus musculus [9]. In addition, the Ki ratio in [6] came out at 9.4.

For the compound `CC1CCC(=O)N1CC#CCN(C)C` (centres undefined), the figures for the Ki in [1] and in assay [7] were 690 nM and 7.1 nM, respectively. In addition, the ED50 in the assay on Mus musculus [2] is 1.7 mg/kg; in the assay with Mus musculus [3], over 100 mg/kg; with Mus musculus [4], 3 mg/kg; in the assay on Mus musculus [5], 3.7 mg/kg; in the assay on Mus musculus [8], over 100 mg/kg; in the assay on Mus musculus [9] it was over 100 mg/kg. Besides, the Ki ratio in assay [6] turned out to be 97.

With `CC(=O)N(C)CC#CCN1CCCC1`, the inhibition constant Ki in assay [1] came to 260 nM; in assay [7], 0.92 nM. Further, the median effective dose (ED50) in the assay on Mus musculus [2] was 0.3 mg/kg; in the assay on Mus musculus [3] it was over 10 mg/kg; with Mus musculus [4], 0.55 mg/kg; in the assay on Mus musculus [5], 0.55 mg/kg; in the assay with Mus musculus [8] it was over 10 mg/kg; in the assay on Mus musculus [9] it was over 10 mg/kg. Further, in assay [6], the Ki ratio turned out to be 283.

Take `Cc1cncn1CC#CC(C)N1CCCC1=O` (centres undefined): the Ki in assay [1] came to 16.8 nM; in assay [7] it was 5.22 nM. Besides, the ED50 was over 100 mg/kg in the assay on Mus musculus [2]; 0.45 mg/kg in the assay with Mus musculus [3]; over 100 mg/kg with Mus musculus [4]; over 100 mg/kg with Mus musculus [5]; 25.4 mg/kg with Mus musculus [8]; 2.5 mg/kg in the assay with Mus musculus [9]. For the same compound, the Ki ratio in assay [6] came out at 3.2.

Turning to `O=C1OCCN1CC#CCN1CCCC1`, the Ki in assay [1] turned out to be 1362 nM; in [7], 8.9 nM. Also, the ED50 was 3.7 mg/kg in the assay on Mus musculus [2]; over 10 mg/kg with Mus musculus [3]; 5.4 mg/kg in the assay on Mus musculus [4]; over 10 mg/kg in the assay on Mus musculus [5]; over 10 mg/kg in the assay on Mus musculus [8]; over 10 mg/kg in the assay with Mus musculus [9]. The Ki ratio in [6] was 153.

For `CC(C#CCN1CCCC1)N1CCCC1=O` (centres undefined), the Ki is listed as 14 nM in assay [1] and 1.1 nM in assay [7]. Besides, the ED50 was over 30 mg/kg in the assay with Mus musculus [2]; 0.55 mg/kg in the assay on Mus musculus [3]; over 30 mg/kg in the assay on Mus musculus [4]; over 30 mg/kg in the assay on Mus musculus [5]; 3 mg/kg in the assay with Mus musculus [8]; 0.55 mg/kg in the assay with Mus musculus [9]. The Ki ratio in [6] turned out to be 13.

On to `CCOC(=O)N(C)CC#CCn1cncc1C`, for which the Ki is 568 nM in assay [1] and 156 nM in [7]. For the same compound, the ED50 in the assay with Mus musculus [2] is 97 mg/kg; with Mus musculus [3], 66 mg/kg; in the assay with Mus musculus [4], over 100 mg/kg; in the assay with Mus musculus [5], over 100 mg/kg; in the assay on Mus musculus [8], 30 mg/kg; in the assay with Mus musculus [9] it was 66 mg/kg. Further, the Ki ratio in assay [6] was found to be 3.6.

As for `COC(=O)N(C)C(C)C#CCn1cncc1C` (centres undefined), the Ki amounted to 97 nM in [1] and 9.5 nM in assay [7]. For the same compound, the ED50 is 97 mg/kg in the assay with Mus musculus [2]; 3.7 mg/kg in the assay on Mus musculus [3]; over 100 mg/kg in the assay with Mus musculus [4]; over 100 mg/kg in the assay with Mus musculus [5]; over 100 mg/kg in the assay with Mus musculus [8]; 6.6 mg/kg in the assay with Mus musculus [9]. For the same compound, the Ki ratio in assay [6] turned out to be 10.

With `Cc1cncn1CC#CCN1CCCC1=O`, the Ki in assay [1] worked out at 64 nM; in [7] it was 3.2 nM. Also, the ED50 in the assay with Mus musculus [2] is 2.5 mg/kg; in the assay with Mus musculus [3], 0.8 mg/kg; with Mus musculus [4] it was over 100 mg/kg; in the assay on Mus musculus [5] it was over 100 mg/kg; with Mus musculus [8] it was over 100 mg/kg; in the assay with Mus musculus [9], over 100 mg/kg. The Ki ratio in [6] worked out at 20.

Regarding `CN(C)C(=O)N(C)CC#CCN1CCCC1`, the Ki in assay [1] is 140 nM; in assay [7] it was 3.6 nM. The median effective dose (ED50) with Mus musculus [2] was 1.2 mg/kg; with Mus musculus [3] it was 6.6 mg/kg; in the assay with Mus musculus [4], over 10 mg/kg; in the assay on Mus musculus [5] it was over 10 mg/kg; in the assay with Mus musculus [8], over 10 mg/kg; with Mus musculus [9], over 10 mg/kg. In addition, in [6], the Ki ratio came to 39.

Take `Cc1c[n+](C)cn1CC#CCN1CCCC1=O.[I-]`: the Ki in [1] is on record as 303 nM; in assay [7], 53 nM. Moreover, the 50% effective dose (ED50) with Mus musculus [2] was 30 mg/kg; in the assay on Mus musculus [3], 9.7 mg/kg; with Mus musculus [4] it was over 100 mg/kg; in the assay with Mus musculus [5], over 100 mg/kg; in the assay on Mus musculus [8], over 100 mg/kg; with Mus musculus [9], 25 mg/kg. For the same compound, the Ki ratio in assay [6] stood at 5.7.

In the case of `CCOC(=O)N(C)C(C)C#CCn1cncc1C` (centres undefined), the results for the Ki in assay [1] and in assay [7] were 568 nM and 156 nM, respectively. Further, the ED50 with Mus musculus [2] was over 100 mg/kg; in the assay on Mus musculus [3], 9.7 mg/kg; with Mus musculus [4], over 100 mg/kg; in the assay on Mus musculus [5] it was over 100 mg/kg; in the assay with Mus musculus [8], 30 mg/kg; with Mus musculus [9] it was 17.3 mg/kg. The Ki ratio in assay [6] is 3.6.

For the compound `COC(=O)NCC#CCn1cncc1C`, the Ki was determined as 6825 nM in assay [1] and 191 nM in assay [7]. For the same compound, the ED50 is over 100 mg/kg in the assay on Mus musculus [2]; 66 mg/kg in the assay on Mus musculus [3]; over 100 mg/kg in the assay with Mus musculus [4]; over 100 mg/kg with Mus musculus [5]; over 100 mg/kg in the assay on Mus musculus [8]; 80 mg/kg in the assay on Mus musculus [9]. Also, the Ki ratio in assay [6] was 36.

With `COC(=O)N(C)C(C)C#CCN1CCCC1` (centres undefined), the figures for the Ki in assay [1] and in [7] were 64 nM and 1.5 nM, respectively. Besides, the ED50 in the assay on Mus musculus [2] was 9.7 mg/kg; in the assay with Mus musculus [3], over 100 mg/kg; in the assay on Mus musculus [4] it was 14.2 mg/kg; in the assay with Mus musculus [5], 20.9 mg/kg; in the assay on Mus musculus [8], over 100 mg/kg; in the assay on Mus musculus [9] it was over 100 mg/kg. In addition, the Ki ratio in assay [6] was found to be 43.

For the compound `CCOC(=O)N(C)CC#CCN1CCCC1`, the values for the Ki in assay [1] and in assay [7] were 4219 nM and 65 nM, respectively. The ED50 is 66 mg/kg with Mus musculus [2]; over 100 mg/kg in the assay on Mus musculus [3]; over 100 mg/kg in the assay with Mus musculus [4]; over 100 mg/kg with Mus musculus [5]; over 100 mg/kg with Mus musculus [8]; over 100 mg/kg in the assay on Mus musculus [9]. Moreover, in [6], the Ki ratio turned out to be 65.

Regarding `COC(=O)N(C)CC#CCN1CCCC1`, the Ki in assay [1] turned out to be 550 nM; in [7], 2.6 nM. The ED50 in the assay with Mus musculus [2] was 1.4 mg/kg; in the assay on Mus musculus [3], over 10 mg/kg; with Mus musculus [4] it was 5.5 mg/kg; in the assay with Mus musculus [5] it was 3 mg/kg; with Mus musculus [8], over 10 mg/kg; in the assay with Mus musculus [9], over 10 mg/kg. The Ki ratio in [6] came to 211.
